Experiment [1] addresses T1, human insuline receptor (Ins-R) kinase domain (Homo sapiens, UniProt P06213).
T1 construct: GST-tagged recombinant kinase domain of the human insuline receptor; GST; purchased ProQinase, Freiburg, Germany; host or cells: SF-9 cells
Put plainly: InsR HTRF assay (assay 4). The note with it: IC50 assay 4/IC50 assay 2. The experiment is classed as biochemical. Here is the method: Inhibitory activity of compounds against the kinase activity of the insulin receptor was quantified employing the Ins-R HTRF assay as described in the following paragraphs.
GST-tagged recombinant kinase domain of the human insuline receptor (Ins-R, purchase from ProQinase, Freiburg, Germany) expressed in SF-9 cells was used as kinase. As substrate for the kinase reaction biotinylated poly-(Glu,Tyr) (Cis biointernational, France) was used.
Ins-R was incubated for 20 min at 22° C. in the presence of different concentrations of test compounds in 5 μl assay buffer [50 mM Hepes/NaOH pH 7, 15 mM MnCl2, 1 mM dithiothreitol, 0.1 μM sodium ortho-vanadate, 0.015% (v/v) PEG20000, 10 μM adenosine-tri-phosphate (ATP), 0.3 μg/ml substrate, 1% (v/v) dimethylsulfoxide]. The concentration of Ins-R was adjusted depending of the activity of the enzyme lot and was chosen appropriate to have the assay in the linear range, typical concentrations were in the range of 10 pg/μl. The reaction was stopped by the addition of 5 μl of a solution of HTRF detection reagents (0.1 μM streptavidine-XLent and 1 nM PT66-Eu-Chelate, an europium-chelate labelled anti-phosphotyrosine antibody from Perkin Elmer) in an aqueous EDTA-solution (80 mM EDTA, 0.2% (w/v) bovine serum albumin in 50 mM HEPES/NaOH pH 7.0).
(§1) The resulting mixture was incubated 1 h at 22° C. to allow the binding of the biotinylated phosphorylated peptide to the streptavidine-XLent and the PT66-Eu-Chelate. Subsequently the amount of phosphorylated substrate was evaluated by measurement of the resonance energy transfer from the PT66-Eu-Chelate to the streptavidine-XLent. Therefore, the fluorescence emissions at 620 nm and 665 nm after excitation at 350 nm was measured in a HTRF reader, e.g. a Rubystar (BMG Labtechnologies, Offenburg, Germany) or a Viewlux (Perkin-Elmer). The ratio of the emissions at 665 nm and at […] was taken as the measure for the amount of phosphorylated substrate. The data were normalised (enzyme reaction without inhibitor=0% inhibition, all other assay components but no enzyme=100% inhibition) and IC50 values were calculated by a 4 parameter fit using an inhouse software.
In general terms: Time-resolved FRET reads energy transfer from a long-lived donor to a nearby acceptor.

Experiment [2] addresses Tie2 (Homo sapiens, UniProt Q02763). Put plainly: Tie-2-Kinase HTRF-Assay without kinase preactivation (assay 2). The experiment is classed as biochemical. Also on record: fusion protein of GST and the intracellular domains of Tie-2; GST; made in house; host or cells: insect cells (Hi-5). The note with it: GST-Tie-2 without preactivation, 10 μM ATP; pIC50 = -log IC50 molar.
Source text: Tie2-inhibitory activity of compounds of the present invention was quantified employing two Tie2 HTRF assay as described in the following paragraphs.
A recombinant fusion protein of GST and the intracellular domains of Tie-2, expressed in insect cells (Hi-5) and purified by Glutathion-Sepharose affinity chromatography was used as kinase. Alternatively, commercially available GST-Tie2-fusion protein (Upstate Biotechnology, Dundee, Scotland) can be used As substrate for the kinase reaction the biotinylated peptide biotin-Ahx-EPKDDAYPLYSDFG (C-terminus in amid form) was used which can be purchased e.g. from the company Biosynthan GmbH (Berlin-Buch, Germany). Detection of phosphorylated product is achieved specifically by a trimeric detection complex consisting of the phosphorylated substrate, streptavidin-XLent (SA-XLent) which binds to biotin, and Europium Cryptate-labeled anti-phosphotyrosine antibody PT66 which binds to phosphorylated tyrosine.
Tie-2 (3.5 ng/measurement point) was incubated for 60 min at 22° C. in the presence of 10 μM adenosine-tri-phosphate (ATP) and 1 μM substrate peptide (biotin-Ahx-EPKDDAYPLYSDFG-NH2) with different concentrations of test compounds (0 μM and concentrations in the range 0.001-20 μM) in 5 μl assay buffer [50 mM Hepes/NaOH pH 7, 10 mM MgCl2, 0.5 mM MnCl2, 1.0 mM dithiothreitol, 0.01% NP40, protease inhibitor mixture (“Complete w/o EDTA” from Roche, 1 tablet per 2.5 ml), 1% (v/v) dimethylsulfoxide]. The reaction was stopped by the addition of 5 μl of an aqueous buffer (25 mM Hepes/NaOH pH 7.5, 0.28% (w/v) bovine serum albumin) containing EDTA (90 mM) and the HTRF (Homogeneous Time Resolved Fluorescence) detection reagents streptavidine-XLent (0.2 μM, from Cis Biointernational, Marcoule, France) and PT66-Eu-Chelate (0.3 ng/μl; a europium-chelate labelled anti-phospho-tyrosine antibody from Perkin Elmer).
as §1, with “substrate peptide” for “substrate”, “substrate peptide.” for “substrate.”

T1 sequence (P06213 1023-1298 limits assumed): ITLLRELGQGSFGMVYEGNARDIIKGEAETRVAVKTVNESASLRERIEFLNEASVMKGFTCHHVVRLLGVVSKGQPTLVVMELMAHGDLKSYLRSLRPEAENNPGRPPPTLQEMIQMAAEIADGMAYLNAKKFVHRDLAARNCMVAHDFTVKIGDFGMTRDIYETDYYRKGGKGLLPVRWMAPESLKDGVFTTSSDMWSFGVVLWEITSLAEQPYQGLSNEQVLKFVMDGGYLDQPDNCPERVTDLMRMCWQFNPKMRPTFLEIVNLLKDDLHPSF
Tie2, sequence (Q02763 770-1124 limits assumed): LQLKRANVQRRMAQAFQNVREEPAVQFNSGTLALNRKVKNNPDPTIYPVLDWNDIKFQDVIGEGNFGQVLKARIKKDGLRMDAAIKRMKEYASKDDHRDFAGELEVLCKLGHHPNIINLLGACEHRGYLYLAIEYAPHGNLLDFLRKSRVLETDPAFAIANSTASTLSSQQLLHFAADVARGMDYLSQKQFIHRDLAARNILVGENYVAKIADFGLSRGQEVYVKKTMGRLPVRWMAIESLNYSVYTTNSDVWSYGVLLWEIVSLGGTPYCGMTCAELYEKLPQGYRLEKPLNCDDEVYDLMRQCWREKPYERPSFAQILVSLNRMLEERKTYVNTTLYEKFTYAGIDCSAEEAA

Broadly, the IC50 is the concentration that gives 50% inhibition. High values mean lower potency, low ones higher potency. Consider `Cc1cc(-c2ccc(NC(=O)Nc3ccc(F)c(C(F)(F)F)c3)cc2)c2cnn(C)c2n1` [2.5, 1-[4-(1,6-Dimethyl-1H-pyrazolo[3,4-b]pyridin-4-yl)-phenyl]-3-(4-fluoro-3-trifluoromethyl-phenyl)-urea], for which, in experiment [1], the “Selectivity vs. InsR” value is listed as over 20 fold. Also, in experiment [2], the half-inhibitory concentration (IC50) was in the range of 0.501 to 1 µM.

As for `COc1ccc(C(F)(F)F)cc1NC(=O)Nc1ccc(-c2cc(C)nc3c2cnn3C)cc1` [2.7, 1-[4-(1,6-Dimethyl-1H-pyrazolo[3,4-b]pyridin-4-yl)-phenyl]-3-(2-methoxy-5-trifluoromethyl-phenyl)-urea], in experiment [1], the “Selectivity vs. InsR” value is given as over 20 fold. This molecule returned a 50% inhibitory concentration (IC50) in experiment [2] of under 0.501 µM.

Regarding `Cn1ncc2c(-c3ccc(NC(=O)Nc4cccc(C(F)(F)F)c4)cc3)cc(CN3CCOCC3)nc21` [3.2, 1-[4-(1-Methyl-6-morpholin-4-ylmethyl-1H-pyrazolo[3,4-b]pyridin-4-yl)-phenyl]-3-(3-trifluoromethyl-phenyl)-urea], the “Selectivity vs. InsR” value in experiment [1] is over 20 fold. The concentration for half-maximal inhibition (IC50) in experiment [2] was under 0.501 µM.

`CCc1cccc(NC(=O)Nc2ccc(-c3cc(CN4CCOCC4)nc4c3cnn4C)cc2)c1` [3.4, 1-(3-Ethyl-phenyl)-3-[4-(1-methyl-6-morpholin-4-ylmethyl-1H-pyrazolo[3,4-b]pyridin-4-yl)-phenyl]-urea]: the “Selectivity vs. InsR” value in experiment [1] is over 20 fold. The molecule further showed a half-maximal inhibitory concentration (IC50) in experiment [2] of under 0.501 µM.

Regarding `Cc1ccc(F)c(NC(=O)Nc2ccc(-c3cc(CN4CCOCC4)nc4c3cnn4C)cc2)c1` [3.5, 1-(2-Fluoro-5-methyl-phenyl)-3-[4-(1-methyl-6-morpholin-4-ylmethyl-1H-pyrazolo[3,4-b]pyridin-4-yl)-phenyl]-urea], in experiment [1], the “Selectivity vs. InsR” value is over 20 fold. This molecule had a half-inhibitory concentration (IC50) in experiment [2] of under 0.501 µM.
